Test results as given in paper PMC10700596 (Nature Communications, 2023).
Several values for one entry are separate records, joined by “and”; a condition that tells them apart may be missing. Equal entries are not always repeated. Where two headings read alike, the source gives them in different places.

Test: in vivo
Format: in vivo, mice
Settings: mice; for concentration at 5 min / concentration at 15 min / concentration at 30 min / concentration at 60 min / concentration at 120 min / concentration at 240 min / concentration at 360 min / concentration at 480 min / concentration at 1440 min / CSF concentration, Final (individual sample) / Brain concentration, Final (individual sample) / Plasma concentration, Final (individual sample): 10 mg/kg, IP 10 mg/kg

CCc1nc2c(C)nc(C)cc2n1-c1ccc(CCNC(=O)NS(=O)(=O)c2ccc(C)cc2)cc1 [Grapiprant, reference compound]
concentration at 5 min (male, CD-1, mouse, CSF, ip, CSF, 5 min, mean of 3, read-out: CSF concentration C (mean)): 9.11 ng/mL
concentration at 15 min (male, CD-1, mouse, CSF, ip, CSF, 15 min, individual animals, read-out: CSF concentration, Final (individual sample)): 1.21 ng/mL
concentration at 15 min (male, CD-1, mouse, CSF, ip, CSF, 15 min, mean of 3, read-out: CSF concentration C (mean)): 1.7 ng/mL
concentration at 30 min (male, CD-1, mouse, CSF, ip, CSF, 30 min, mean of 3, read-out: CSF concentration C (mean)): 3.94 ng/mL
concentration at 60 min (male, CD-1, mouse, CSF, ip, CSF, 60 min, mean of 3, read-out: CSF concentration C (mean)): 0.35 ng/mL
concentration at 120 min (male, CD-1, mouse, CSF, ip, CSF, 120 min, mean of 3, read-out: CSF concentration C (mean)): 1.36 ng/mL
concentration at 240 min (male, CD-1, mouse, CSF, ip, CSF, 240 min, individual animals, read-out: CSF concentration, Final (individual sample)): 0 ng/mL
concentration at 240 min (male, CD-1, mouse, CSF, ip, CSF, 240 min, mean of 3, read-out: CSF concentration C (mean)): 0 ng/mL
concentration at 360 min (male, CD-1, mouse, CSF, ip, CSF, 360 min, individual animals, read-out: CSF concentration, Final (individual sample)): 0 ng/mL
concentration at 360 min (male, CD-1, mouse, CSF, ip, CSF, 360 min, mean of 3, read-out: CSF concentration C (mean)): 0 ng/mL
concentration at 480 min (male, CD-1, mouse, CSF, ip, CSF, 480 min, mean of 3, read-out: CSF concentration C (mean)): 0.4 ng/mL
concentration at 1440 min (male, CD-1, mouse, CSF, ip, CSF, individual animals, read-out: CSF concentration, Final (individual sample)): 0 ng/mL
concentration at 1440 min (male, CD-1, mouse, CSF, ip, CSF, mean of 3, read-out: CSF concentration C (mean)): 0 ng/mL
concentration at 5 min (male, CD-1, mouse, brain, ip, brain, 5 min, individual animals, read-out: Brain concentration, Final (individual sample)): 20.4 ng/g
concentration at 5 min (male, CD-1, mouse, brain, ip, brain, 5 min, mean of 3, read-out: Brain concentration C (mean)): 21.9 ng/g
concentration at 15 min (male, CD-1, mouse, brain, ip, brain, 15 min, mean of 3, read-out: Brain concentration C (mean)): 14.9 ng/g
concentration at 30 min (male, CD-1, mouse, brain, ip, brain, 30 min, individual animals, read-out: Brain concentration, Final (individual sample)): 11.3 ng/g
concentration at 30 min (male, CD-1, mouse, brain, ip, brain, 30 min, mean of 3, read-out: Brain concentration C (mean)): 11.1 ng/g
concentration at 60 min (male, CD-1, mouse, brain, ip, brain, 60 min, mean of 3, read-out: Brain concentration C (mean)): 6.66 ng/g
concentration at 120 min (male, CD-1, mouse, brain, ip, brain, 120 min, individual animals, read-out: Brain concentration, Final (individual sample)): 0 ng/g
concentration at 120 min (male, CD-1, mouse, brain, ip, brain, 120 min, mean of 3, read-out: Brain concentration C (mean)): 0 ng/g
concentration at 240 min (male, CD-1, mouse, brain, ip, brain, 240 min, individual animals, read-out: Brain concentration, Final (individual sample)): 0 ng/g
concentration at 240 min (male, CD-1, mouse, brain, ip, brain, 240 min, mean of 3, read-out: Brain concentration C (mean)): 0 ng/g
concentration at 360 min (male, CD-1, mouse, brain, ip, brain, 360 min, individual animals, read-out: Brain concentration, Final (individual sample)): 0 ng/g
concentration at 360 min (male, CD-1, mouse, brain, ip, brain, 360 min, mean of 3, read-out: Brain concentration C (mean)): 0 ng/g
concentration at 480 min (male, CD-1, mouse, brain, ip, brain, 480 min, individual animals, read-out: Brain concentration, Final (individual sample)): 0 ng/g
concentration at 480 min (male, CD-1, mouse, brain, ip, brain, 480 min, mean of 3, read-out: Brain concentration C (mean)): 0 ng/g
concentration at 1440 min (male, CD-1, mouse, brain, ip, brain, individual animals, read-out: Brain concentration, Final (individual sample)): 0 ng/g
concentration at 1440 min (male, CD-1, mouse, brain, ip, brain, mean of 3, read-out: Brain concentration C (mean)): 0 ng/g
concentration at 5 min (male, CD-1, mouse, plasma, ip, plasma, 5 min, individual animals, read-out: Plasma concentration, Final (individual sample)): 546 ng/mL
concentration at 5 min (male, CD-1, mouse, plasma, ip, plasma, 5 min, mean of 3, read-out: Plasma concentration C (mean)): 609 ng/mL
concentration at 15 min (male, CD-1, mouse, plasma, ip, plasma, 15 min, mean of 3, read-out: Plasma concentration C (mean)): 834 ng/mL
concentration at 30 min (male, CD-1, mouse, plasma, ip, plasma, 30 min, mean of 3, read-out: Plasma concentration C (mean)): 734 ng/mL
concentration at 60 min (male, CD-1, mouse, plasma, ip, plasma, 60 min, mean of 3, read-out: Plasma concentration C (mean)): 393 ng/mL
concentration at 120 min (male, CD-1, mouse, plasma, ip, plasma, 120 min, mean of 3, read-out: Plasma concentration C (mean)): 304 ng/mL
concentration at 240 min (male, CD-1, mouse, plasma, ip, plasma, 240 min, mean of 3, read-out: Plasma concentration C (mean)): 31.1 ng/mL
concentration at 360 min (male, CD-1, mouse, plasma, ip, plasma, 360 min, mean of 3, read-out: Plasma concentration C (mean)): 11.2 ng/mL
concentration at 480 min (male, CD-1, mouse, plasma, ip, plasma, 480 min, individual animals, read-out: Plasma concentration, Final (individual sample)): 0 ng/mL
concentration at 480 min (male, CD-1, mouse, plasma, ip, plasma, 480 min, mean of 3, read-out: Plasma concentration C (mean)): 0 ng/mL
concentration at 1440 min (male, CD-1, mouse, plasma, ip, plasma, individual animals, read-out: Plasma concentration, Final (individual sample)): 0 ng/mL
concentration at 1440 min (male, CD-1, mouse, plasma, ip, plasma, mean of 3, read-out: Plasma concentration C (mean)): 0 ng/mL
Cmax (male, CD-1, mouse, plasma, ip, 10 mg/kg i.p.): 834 ng/mL
AUC (male, CD-1, mouse, plasma, ip, 10 mg/kg i.p., read-out: plasma AUC (converted)): 1340 ng·h/mL
CSF concentration, Final (individual sample) (CSF, 5 min, individual animals): 0 ng/mL and 11.4 ng/mL and 16.0 ng/mL
CSF concentration, Final (individual sample) (CSF, 15 min, individual animals): 2.26 ng/mL and 1.62 ng/mL
CSF concentration, Final (individual sample) (CSF, 30 min, individual animals): 2.31 ng/mL and 1.36 ng/mL and 8.16 ng/mL
CSF concentration, Final (individual sample) (CSF, 60 min, individual animals): 1.05 ng/mL and 0 ng/mL
CSF concentration, Final (individual sample) (CSF, 120 min, individual animals): 4.07 ng/mL and 0 ng/mL
CSF concentration, Final (individual sample) (CSF, 480 min, individual animals): 1.20 ng/mL and 0 ng/mL
Brain concentration, Final (individual sample) (brain, 5 min, individual animals): 29.4 ng/g and 15.9 ng/g
Brain concentration, Final (individual sample) (brain, 15 min, individual animals): 15.1 ng/g and 20.3 ng/g and 9.28 ng/g
Brain concentration, Final (individual sample) (brain, 30 min, individual animals): 9.04 ng/g and 12.8 ng/g
Brain concentration, Final (individual sample) (brain, 60 min, individual animals): 7.24 ng/g and 0 ng/g and 12.8 ng/g
Plasma concentration, Final (individual sample) (plasma, 5 min, individual animals): 525 ng/mL and 757 ng/mL
Plasma concentration, Final (individual sample) (plasma, 15 min, individual animals): 1131 ng/mL and 825 ng/mL and 545 ng/mL
Plasma concentration, Final (individual sample) (plasma, 30 min, individual animals): 543 ng/mL and 519 ng/mL and 1140 ng/mL
Plasma concentration, Final (individual sample) (plasma, 60 min, individual animals): 539 ng/mL and 0 ng/mL and 640 ng/mL
Plasma concentration, Final (individual sample) (plasma, 120 min, individual animals): 446 ng/mL and 153 ng/mL and 313 ng/mL
Plasma concentration, Final (individual sample) (plasma, 240 min, individual animals): 33.6 ng/mL and 42.0 ng/mL and 17.7 ng/mL
Plasma concentration, Final (individual sample) (plasma, 360 min, individual animals): 0 ng/mL and 34 ng/mL
